Experimental data: paper PMC11335710 (GeroScience, 2024)
Entries after “also recorded” stand apart in the source; their conditions may differ. Ends that are not written are not given here.

Columns and labels:
[1] = test system: SH-SY5Y human neuroblastoma cells; experiment: 6-OHDA-mediated cell loss in SH-SY5Y cells (TOPRO-3 cell density); format: cell-based; details: 6-OHDA 100 µM 2 h, GLP-1 or GIP 10 nM, DPP-4 inhibitor 1 µM, read at 24 h
Procedure: Five minutes later, the cells were treated with vehicle or freshly prepared 6-OHDA (100 µM) for 2 h. GIP, GLP-1, and DPP-4 inhibitor or vehicle were added to the media again after three washes. […] The cells were then washed in PBS for three times and, thereafter, were imaged using a Licor Odyssey IR scanner. Cell density in each well was analyzed by using Licor Odyssey In Cell Western analyses software v 3.0, as previously described [45].
In our study, TOPRO-3 was applied to cells after fixation with 4% PFA. The cells were washed in PBS for three times and, thereafter, were imaged using a Licor Odyssey IR scanner. Under these conditions, it is likely that any dead cells were washed away before quantifying fluorescence.

[2] = test system: rat primary ventral mesencephalic cultures; experiment: 6-OHDA toxicity in rat primary ventral mesencephalic cultures (TH cell density); format: cell-based; details: rat primary VM cultures, 6-OHDA 100 µM 2 h; for Effect of co-administered DPP-4 inhibitor on protective response of GIP and GLP-1 (TH cell density): PF-00734,200 1 µM with GLP-1 or GIP 10 nM; for Effect on 6-OHDA-mediated reduction in TH cell density: GLP-1 or GIP 10 nM, fixed 22 h after washing
From the text: Primary cultures were generated from embryonic (E14-15) ventral mesencephalon (VM) brain tissue removed from fetuses of timed-pregnant Sprague–Dawley rats (Charles River Laboratories, Wilmington, MA), in line with published procedures with minor modifications. Briefly, the whole brain was removed aseptically, and a small piece of tissue containing the VM was separated. Blood vessels and meninges were detached, and remaining pooled VM tissues were gently trypsinized (0.25% (Invitrogen, Carlsbad, CA), 15 min at 37°C). Trypsin was removed with pre-warmed DMEM/F-12 (Invitrogen), and cells were dissociated by trituration and then counted and plated into 96-well (6.0 × 10^4/well) cell culture plates that were pre-coated with poly-D-lysine (Sigma-Aldrich). The culture plating medium was Dulbecco’s modified Eagle medium/F12 supplemented with 10% heat-inactivated fetal bovine serum, 1 mM L-glutamine, and 2% B27 (Invitrogen). VM cells were maintained at 37°C in a humidified atmosphere (5% CO2 and 95% air) and fed by exchanging 50% of media with feed media (Neurobasal medium, Invitrogen) with 0.5 mM L-glutamate and 2% B27 with antioxidants supplement on DIV (days in vitro) 3 and 5. On DIV7, VM cultures were fed with media containing B27 supplement minus antioxidants (Invitrogen). Thereafter, freshly prepared 6-OHDA (100 µM in 20 µM ascorbic acid saline solution) or saline (with 20 µM ascorbic acid) was added to the wells on DIV 10. Following 2-h incubation, cultures were washed with feed media plus ( −) AO B27 three times. DPP-4 inhibitor (PF-00734,200), incretins, or vehicle was added to the well at the last wash as a post-treatment strategy. Cells were returned to a 37°C incubator for 22 h and then fixed with 4% paraformaldehyde (PFA) for immunoreactivity evaluation.

6-OHDA lesioned rats = details: rats with unilateral medial forebrain bundle 6-OHDA lesion; cited from earlier work
[3] = Plasma sitagliptin pharmacokinetics in nonhuman primates (LC-MS, noncompartmental analysis)
Procedure: Animals included Macaca mulatta of 7 to 20 kg weight, mixed gender, 12 to 19 years of age (n = 5 to 7 per group). […] Commercially prepared monkey chow was distributed twice per day along with daily food enrichment, and water was available ad libitum. Monkeys were observed daily for food consumption and overall well-being.
(§1) Immediately thereafter, an oral glucose tolerance test was performed to stimulate incretin secretion. This is designated as time zero (i.e., 0) in Figs. 2, 4 and 5.
(§2) Further samples were collected without the inhibitor for DPP-4 analysis to permit quantification of DPP-4 inhibition. Incretin levels were measured with the following assays: Active GLP-1 ((ver 2 kit) Meso Scale Diagnostic), Active GIP (ELISA kit—IBL America), DPP-4 activity was evaluated by fluorometric assay using a DPPIV/CD26 assay kit for biological samples ((BML-AK498-0001) Enzo Life Sciences, Farmingdale, NY).
A noncompartmental approach to pharmacokinetic analysis was employed using Phoenix WinNonlin v8.3 (Certara Corp, Cary, NC). The maximum plasma concentration (Cmax) and the time of maximum plasma concentration (Tmax) were recorded as observed values. […] AUCINF (the AUC from time zero to infinity) was calculated by extrapolation by dividing Clast (the last measurable drug concentration) by the rate constant of the terminal phase, lZ (Kel). This constant was determined from the slope of the terminal phase of the concentration–time curve using uniformly weighted least squares as the estimation procedure and acceptance criteria of (i) adjusted r^2 > 0.8 and (ii) includes > 3 time points in the terminal phase.

GLP-1 and GIP = experiment: CSF GLP-1 and GIP levels in NHPs (both incretins, summary in text); format: in vivo, Macaca mulatta; details: CSF at 3 and 5 h after day 6 sitagliptin, NHP
Procedure: as §1, §2

[4] = set-up: method as in Reference 33 within 44; details: Merck's data on file; ref Reference 33 within 44; cited from earlier work
[5] = cited from earlier work
p-glycoprotein = details: in relation to renal clearance; cited from earlier work
[6] = test system: organic anion transporter 3 (hOAT3); details: in relation to renal clearance; cited from earlier work
in vivo = details: both, Macaca mulatta
[7] = both, rhesus monkey, in vivo, po, 5 mg/kg
[8] = both, rhesus monkey, in vivo, po, 20 mg/kg
[9] = both, rhesus monkey, in vivo, po, 100 mg/kg

O=C([C@@H]1C[C@H](N2CCN(c3ncccn3)CC2)CN1)N1CCC(F)(F)C1 [PF-00734,200, gosogliptin]
Effect on 6-OHDA-mediated cell loss (TOPRO-3 fluorescence cell density) ([1]; listed as DPP-4I): ameliorated | Effect on 6-OHDA-mediated cell loss (TOPRO-3 fluorescence cell density) ([1]; listed as DPP-4 inhibitor): partially mitigated | Effect of co-administered DPP-4 inhibitor on protective response of GIP and GLP-1 (TH cell density) [2]: significantly potentiated | Effect of co-administered DPP-4 inhibitor on protective response of GIP and GLP-1 (TH cell density) ([2]; listed as DPP-4I): further reduced | Effect on dopaminergic neurons, dopamine levels and methamphetamine-mediated rotation (6-OHDA lesioned rats): mitigated the loss of dopaminergic neurons and dopamine levels

N[C@@H](CC(=O)N1CCn2c(nnc2C(F)(F)F)C1)Cc1cc(F)c(F)cc1F [sitagliptin]
Tmax ([3]; 20 mg/kg oral once daily, day 6, NHP plasma): 2 h | Tmax ([3]; both, Macaca mulatta, in vivo, po): 2 h | AUC(0-inf) [3, 7]: 8.81 µM·h | AUC(0-t) [3, 7]: 7.83 µM·h | Cmax [3, 7]: 0.768 µM | half-life [3, 7]: 8.4 h | k el [3, 7]: 2.28e-05 s⁻¹ | AUC(0-inf) [3, 8]: 50.9 µM·h | AUC(0-t) [3, 8]: 49.6 µM·h | Cmax [3, 8]: 7.06 µM | half-life [3, 8]: 5 h | k el [3, 8]: 3.87e-05 s⁻¹ | AUC(0-inf) [3, 9]: 214 µM·h | AUC(0-t) [3, 9]: 193 µM·h | Cmax [3, 9]: 13.7 µM | Tmax [3, 9]: 2 to 8 h | half-life [3, 9]: 6.7 h | k el [3, 9]: 2.85e-05 s⁻¹ | Cmax ([3]; both, rhesus, Macaca mulatta, in vivo, po, 5 mg/kg): 0.768 µM | Elevation of CSF levels of GLP-1 and GIP vs placebo (GLP-1 and GIP): 2.0- to 3.4 fold | Maximally well-tolerated sitagliptin dose in NHPs [4]: 100 mg/kg | log P [5]: 1.5 | Substrate for p-glycoprotein (p-glycoprotein): substrate | Substrate for organic anion transporter 3 (hOAT3) [6]: substrate | Effect on dopaminergic neurons, dopamine levels and methamphetamine-mediated rotation (6-OHDA lesioned rats): mitigated the loss of dopaminergic neurons and dopamine levels | Kp at 3 h (in vivo): 0.01 | Kp at 5 h (in vivo): 0.01

glucagon-like peptide-1 (HAEGTFTSDVSSYLEGQAAKEFIAWLVKGR; ends and bridges not checked; UniProt P01275 98-127, looked up) [GLP-1, endogenous incretin hormone added to cultures at 10 nM]
Effect on 6-OHDA-mediated cell loss (TOPRO-3 fluorescence cell density) [1]: partially mitigated; also recorded: ameliorated | Effect on 6-OHDA-mediated reduction in TH cell density [2]: partially but significantly mitigated | Effect on 6-OHDA-mediated reduction in TH cell density ([2]; listed as GLP‐1): significant amelioration

glucose-dependent insulinotropic polypeptide [GIP]
Effect on 6-OHDA-mediated cell loss (TOPRO-3 fluorescence cell density) [1]: significantly antagonized; also recorded: ameliorated; also recorded: fully protected against cell loss | Effect on 6-OHDA-mediated reduction in TH cell density [2]: partially but significantly mitigated; also recorded: significant amelioration
